Measured values: US12629415B2, “Vaccine adjuvants” (THE PROVOST, FELLOWS, FOUNDATION SCHOLARS, AND THE OTHER …, priority 2018, dated 2026)
“Also recorded” adds a separate entry of the source.

Legend:
bovine PBMCs [1] = assay: Western blot of pro-IL-1β in bovine PBMC lysates; format: cell-based, cattle
Description: Supernatants were collected after 24 hours and IL-1β was detected by ELISA. Human PBMCs were stimulated for 24 hours with polydA:dT (5 μg/ml, 2 μg/ml or 1 μg/ml) or alum (50 μg/ml) alone or with LPS (100 pg/ml) (C & D). Supernatants were collected and IL-1β was detected by ELISA. […] Cell lysates were harvested and pro-IL-1β was detected by western blot. PBMCs were stimulated with media or polydA:dT (1 μg/ml) for 6 hours. Cells were lysed and RNA was harvested and used for analysis by RT-PCR (F). Results are mean+/− SEM for 6 calves tested individually in triplicate. For human analysis, results are mean+/− SEM for 6 humans tested individually in triplicate The PPIA gene was used for normalization of gene expression.

PBMCs or CBMCs [2] = assay: Quantitative RT-PCR of TNFα, IFNα and CXCL10 mRNA; format: cell-based, human; details: CBMCs vs PBMCs
Description: (§1) Poly(I:C) (5 μg/ml) (Invivogen), Poly(dA:dT) (5 μg/ml) (Sigma-Aldrich), 2′3′ cGAMP (10 μg/ml), 5′ triphosphate double stranded RNA (5′ ppp dsRNA) (2.5 μg/ml) and HSV-60 (2 μg/ml) (all from Invivogen) were transfected into PBMCs or CBMCs using TransIT-X2 (Mirus).
Quantitative RT-PCR—Total RNA from PBMCs or CBMCs was extracted using trizol extraction as previously described (16) and was reverse transcribed using MMLV Reverse Transcriptase (Promega) according to the manufacturer's protocol. This cDNA served as template for amplification of target genes, along with the ‘housekeeping’ gene βActin, by real-time PCR with SensiFast SYBR Green (Bioline) to determine the relative amounts of CXCL10, IFNα and TNFα mRNA. The ABI 7900HT system (Applied Biosystems) was used for real-time PCR, and the cycling threshold method (2^−(ΔΔCt)) was used for relative quantification by comparative method after normalization to βActin expression.

PBMCs or CBMCs [3] = assay: CXCL10 (IP-10) ELISA; format: cell-based, human; details: CBMCs compared with PBMCs
Description: as §1
(§2) Measurement of cytokines—HEK Blue TNFα/IFNα/β Assays were performed as per the manufacturer's (Invivogen) instructions using Quanti-Blue Detection Reagent. SEAP levels were determined using a spectrophotometer plate reader at 630 nm. IFNα (3425-1H-6, Mabtech) and IP-10 (DY266, R&D Systems) were detected by sandwich ELISA. IFNα ELISA used pan specific IFNα antibodies, which allows detection of IFNα subtypes 1/13, 2, 4, 5, 6, 7, 8, 10, 14, 16 and 17. BioLegend LEGENDplex™ Human Inflammation Panel (13-plex) was carried out as per manufacturer's (Biolegend) instructions to determine levels of IFNγ, IL-10, IL-12p70 and IL-23. A BD LSR Fortessa cell analyser was used to acquire samples and BioLegend LEGENDplex™ software was used for analysis.

PBMCs or CBMCs [4] = assay: HEK-Blue TNFα assay on supernatants; format: cell-based, human; details: CBMCs compared with PBMCs; 4, 8 or 24 hours
Description: as §1, §2

bovine PBMCs [5] = assay: Bovine IFN-γ ELISA on stimulated PBMCs; format: cell-based, cattle; details: 72 hours; for IFN-γ secretion by ConA stimulated PBMCs from 2 month old calves: ConA 1 μg/ml, polydA:dT 1 μg/ml; for IFN-γ secretion by ConA stimulated bovine PBMCs: calves <1 year old, ConA 1 μg/ml with or without LPS 100 pg/ml; for IFN-γ secretion by PBMCs from neonatal calves, time course: same 5 calves from 1 to 5 months of age, ConA with or without LPS
Description: Bovine peripheral blood mononuclear cells were isolated from whole blood samples collected in 9m1 vacutainers containing Heparin anticoagulant. PBMCs were spun and separated using leucosep tubes (Cruinn) and a density gradient histopaque 1077 (Sigma-Aldrich) at a speed of 1200 g for 20 minutes. Red blood cell contamination was eliminated using sterile 0.25% sodium chloride (Baxter) as a lysis buffer. The cells were subsequently washed twice in PBS at a speed of 600 g for 10 minutes to remove impurities.
Cells were counted using a haemocytometer, microscope and trypan blue (Sigma Aldrich) and seeded at appropriate densities in tissue culture plates (Cruinn) containing media. The cells were incubated at 37° C. at 5% CO2 treated within hours of plating to avoid unwanted cell death.
When analysing the effects of IL-1β on T cell activation, cells were pre-treated with 250 μg/ml of IL-1 receptor antagonist (IL-1Ra) 40 minutes before stimulation with IL-1β (25 ng/ml). Cells were subsequently stimulated with concanavalin A (1 μg/ml) 1 hour after addition of IL-1β. Similarly, when analysing the effects of polydA:dT on T cell activation, cells were stimulated with polydA:dT (1 μg/ml) 1 hour before ConA treatment (1 μg/ml). LPS (100 pg/ml) primed cells were incubated with YVAD-FMK (10 μm), an inhibitor specific for caspase-1. After 40 minutes, the cells were stimulated with alum (50 μg/ml) for 24 hours and supernatants were then harvested and analysed by ELISA for IL-1β
Capture antibodies (50 μl/well), diluted in the appropriate buffers, were dispensed into the wells of high binding plates (Greiner Bio-One) and incubated overnight at room temperature or 4° C. For analysis of IL-17, the ELISA plates were pre-coated with capture antibody by the manufacturing before delivery. The wells were washed with PBS/Tween 3 times and the plates were then incubated with 150 μl of blocking buffer for 1 hour at room temperature. The plates were washed again before supernatant (neat or diluted) and recombinant standards were added for 1 hour at room temperature. Following this, the plates were washed and 50 μl of detection antibody was added to the wells for a period of 1 or 2 hours at room temperature. After washing, 50 μl diluted streptavidin-HRP was added to the plate for between 30 minutes and 1 hour. After the final wash, 50 μl of 3,3′-, 5,5′-Tetramethylbenzidine (TMB) substrate was added and the plates were incubated in the dark. The reaction was stopped by addition of 1M sulphuric acid and the absorbance readings were measured at 450 nm using a microtitre plate reader. The cytokine concentrations were calculated using a linear regression standard curve from recombinant cytokines of known concentration. Skanit™ software was used to estimate values.

[6] = tested on: adult PBMCs or neonatal CBMCs; assay: HEK-Blue IFNα/β SEAP assay on supernatants of stimulated mononuclear cells; format: cell-based, human
Description: Isolation of mononuclear cells and monocytes—Primary PBMCs or CBMCs were isolated from healthy human blood or cord blood. Monocytes were isolated by negative selection using Monocyte Isolation Kit II (Miltenyi). […] Cells were cultured at 37° C., 5% CO2, 95% air in RPMI-1640, with stable 2.5 mM L-glutamine and 0.5 mM sodium pyruvate with 10% FBS (all from Sigma-Aldrich).
as §1, §2

In the case of “poly(deoxyadenylic-thymidylic) acid [Poly(dA:dT)]”, the pro-IL-1β expression (bovine PBMCs [1]; 6 hours, data not shown) is reported as “enhances pro-IL-1β expression after 6 hours”, the “pro-IL-1β (western blot)” value (bovine PBMCs [1]; 16 hours, with or without LPS 100 pg/ml) is reported as “pro-IL-1β was evidently expressed in cells stimulated with polydA:dT in the absence of LPS” and the “CXCL10 mRNA expression” value (PBMCs or CBMCs [2]; 4 h) is reported as “no inhibition of transcription”. For the same substance, the “IFNα mRNA expression” value (PBMCs or CBMCs [2]; 24 h) was “no inhibition of transcription”, the “TNFα mRNA expression” value (PBMCs or CBMCs [2]; CNA 4 h, LPS 2 h) was “no significant difference in TNFα levels” and the CXCL10 protein secretion (PBMCs or CBMCs [3]) was “no significant difference in the CXCL10 response between PBMCs or CBMCs”. The TNFα production (PBMCs or CBMCs [4]) was “significantly more TNFα production from neonatal cells than from adult cells”, the “IFN-γ secretion by ConA stimulated PBMCs from 2 month old calves” value (bovine PBMCs [5]; listed as PolydA:dT) was “drives enhanced IFN-γ secretion in calves aged <1 year old” and the “IFN-γ secretion by ConA stimulated PBMCs from 2 month old calves” value (bovine PBMCs [5]; listed as poly(dA:dT)) was “strongly enhanced IFN-γ production”. The “IFN-γ secretion by ConA stimulated bovine PBMCs” value (bovine PBMCs [5]) was “promotes type 1 interferon dependent enhancement of interferon gamma production in PBMCs”, the “IFN-γ secretion by ConA stimulated bovine PBMCs” value (bovine PBMCs [5]; listed as Poly (deoxyadenylic-thymidylic) acid) was “promotes type 1 interferon dependent enhancement of interferon gamma production in PBMCs” and the “IFN-γ secretion by ConA stimulated bovine PBMCs” value (bovine PBMCs [5]; listed as poly (dA:dT)) was “strongly enhanced IFN-γ production by PBMCs from adult (8 months old) animals”. The “IFN-γ secretion by ConA stimulated bovine PBMCs” value (bovine PBMCs [5]; listed as polydA:dT) was “increase in IFN-γ secretion; also recorded: increased capacity to secrete IFN-γ in response to polydA:dT, although the difference was only significant when cells were primed with LPS”, the “IFN-γ secretion by PBMCs from neonatal calves, time course” value (bovine PBMCs [5]; listed as PolydA:dT) was “drives enhanced IFN-γ by cells from neonatal calves” and the “IFN-γ secretion by PBMCs from neonatal calves, time course” value (bovine PBMCs [5]; listed as polydA:dT) was “overcomes the deficiency in interferon gamma production in neonatal cattle; also recorded: significantly enhanced in response to polydA:dT; also recorded: most evident in the first 2 months of life after which the enhancement was not statistically significant; also recorded: significant increase in IFN-γ secretion at 1 and 2 months in the presence or absence of LPS; also recorded: ability to drive enhanced IFN-γ from PBMCs of calves aged 1-2 months”. For the same substance, the “innate immune response in neonatal and/or paediatric blood” value ([6]; compared with adult blood, summary statement) was “robust innate immune response in neonatal and/or paediatric blood” and the “type I IFN (IFNα/β) production” value ([6]; neonatal CBMCs compared with adult PBMCs, stimulation 4, 8 or 24 h) was “no inhibition of type I IFN production in CBMCs when compared to PBMCs”.
